The subject of series [1] is DU145-TxR. Briefly: Antiproliferative activity, paclitaxel-resistant DU145-TxR. It counts as cell-based, human.
Series [2] relates to MDR cancer cell lines. Briefly: Antiproliferative activity, MDR cancer cell lines. The settings on record: Homo sapiens, read-out: potency on resistant (MDR) cancer cell lines (range). It counts as cell-based.
Series [3] concerns two melanoma (A375, WM164) and four prostate cancer cell lines (LNCaP, PC-3, Du 145, PPC-1). Briefly: Antiproliferative activity, all six cancer cell lines together. It counts as cell-based, human. The settings on record: for IC50: Homo sapiens, read-out: IC50 values (range over the cancer cell lines); for fold decrease in potency compared with parent compound: average IC50 versus parent ABI-I compound (1a, 1c).

Series [4] relates to nonresistant cancer cell lines. Briefly: Antiproliferative activity, nonresistant cancer cell lines. The settings on record: Homo sapiens, read-out: potency on nonresistant cancer cell lines (range). It counts as cell-based.
A short description of series [5]: In vitro metabolic stability, dog liver microsomes. It counts as in vitro ADME. On the technique in general: Liver microsomes are vesicles of endoplasmic reticulum, rich in cytochrome P450 enzymes.
Series [6] relates to Bovine brain tubulin. As to the kind of experiment: In vitro microtubule polymerization assay. It counts as biochemical. The settings on record: after 15 min, absorbance at 340 nm, 37 °C.
Series [7] is described as follows: In vitro metabolic stability, rat liver microsomes. The settings on record: 50 µM; LC-MS/MS metabolite identification.
Series [8] in a line: In vitro metabolic stability, human liver microsomes. The settings on record: 50 µM; LC-MS/MS metabolite identification.
A short description of series [9]: In vitro metabolic stability, mouse liver microsomes. The settings on record: 50 µM; LC-MS/MS metabolite identification.
Series [10] deals with PC-3-TxR. Briefly: Antiproliferative activity, paclitaxel-resistant PC-3-TxR. It counts as cell-based, human. The settings on record: IC50 on PC-3-TxR divided by IC50 on PC-3.

Molecules are shown by their SMILES. Entries after “also recorded” stand apart in the source; their conditions may differ.

Take `CC(=O)O[C@H]1C(=O)[C@@]2(C)[C@H]([C@H](OC(=O)c3ccccc3)[C@]3(O)C[C@H](OC(=O)[C@H](O)[C@@H](NC(=O)c4ccccc4)c4ccccc4)C(C)=C1C3(C)C)[C@]1(OC(C)=O)CO[C@@H]1C[C@@H]2O` [Paclitaxel, reference compound]: the IC50 in series [1] (Homo sapiens, read-out: IC50±SEM DU145-TxR) is more than 3000 nM; in [2], more than 400 nM.

For the compound `COc1cc(C(=O)c2cc3cc(F)ccc3[nH]2)cc(OC)c1OC` [12f, (5-Fluoro-1H-indol-2-yl)(3,4,5-trimethoxyphenyl)methanone], the IC50 in series [3] was 1 to 10 µM.

As to `COc1cc(C(=O)c2cn(C)c(-c3ccc(C)cc3)n2)cc(OC)c1OC` [3ab], the IC50 in series [4] and in [2] was 50 to 80 nM in each case. The “half-life in dog liver microsomes (in words)” value in [5] (0.5 µM compound, 1 mg/mL microsomal protein, 37 °C) is recorded as “slightly longer half-life than that of compound 1a”. Moreover, in series [5] (50 µM, LC-MS/MS metabolite identification), the “metabolic pathway in dog liver microsomes” value is listed as “Hydroxylation on the para-methyl of the A ring was a major metabolic pathway; also recorded: O-demethylation was a minor metabolic pathway”. Moreover, the “inhibition of tubulin polymerization at 20 µM” value in series [6] is “Complete inhibition”. Besides, the “metabolic pathway in rat liver microsomes” value in series [7] was “N-demethylation represented the major pathway; also recorded: Hydroxylation on the para-methyl of the A ring was a major metabolic pathway; also recorded: O-demethylation was a minor metabolic pathway”. Further, the “metabolic pathway in human liver microsomes” value in series [8] was “Hydroxylation on the para-methyl of the A ring was a major metabolic pathway; also recorded: Ketone reduction was only detected in human liver microsomes; also recorded: O-demethylation was a minor metabolic pathway”. Further, the “metabolic pathway in mouse liver microsomes” value in series [9] is reported as “Hydroxylation on the para-methyl of the A ring was a major metabolic pathway; also recorded: O-demethylation was a minor metabolic pathway; also recorded: N-demethylation represented the major pathway”.

For the compound `COc1cc(C(=O)c2cc3ccc(F)cc3n2C)cc(OC)c1OC` [13b, (6-Fluoro-1-methyl-1H-indol-2-yl)(3,4,5-trimethoxyphenyl)methanone], in [3], the IC50 lay within 1 to 10 µM.

In the case of `COc1cc(C(=O)c2cn(Cc3ccccc3)c(-c3ccc(C)cc3)n2)cc(OC)c1OC` [3aa, (1-Benzyl-2-(p-tolyl)-1H-imidazol-4-yl)(3,4,5-trimethoxyphenyl)methanone], the “fold decrease in potency compared with parent compound” value (“fold decrease in potency” below) in [3] is reported as 90 fold.

With `COc1cc(C(=O)c2c[nH]c(-c3ccc(C)cc3)n2)cc(OC)c1O` [2a, (4-Hydroxy-3,5-dimethoxyphenyl)(2-(p-tolyl)-1H-imidazol-4-yl)methanone], in series [3], the “fold decrease in potency” value is on record as 10-to 20 fold.

In the case of `COc1cc(C(=O)c2cc3ccc(Cl)cc3n2C)cc(OC)c1OC` [13aa, (6-Chloro-1-methyl-1H-indol-2-yl)(3,4,5-trimethoxyphenyl)methanone], the IC50 in series [3] is 1 to 10 µM.

Take `COc1cc(C(=O)c2c[nH]c(-c3ccc(Cl)cc3)n2)cc(OC)c1O` [2c, (2-(4-Chlorophenyl)-1H-imidazol-4-yl)(4-hydroxy-3,5-dimethoxyphenyl)methanone]: the “fold decrease in potency” value in [3] is 10-to 20 fold.

Turning to `COc1cc(C(=O)c2c[nH]c(-c3ccc(Br)cc3)n2)cc(OC)c1OC` [8a, (2-(4-Bromophenyl)-1H-imidazol-4-yl)(3,4,5-trimethoxyphenyl)methanone], the “Resistance index (R) PC-3-TxR” value in series [10] is given as “≈ 1”. The “Resistance index (R) DU145-TxR” value in series [1] (IC50 on DU145-TxR divided by IC50 on Du145) is on record as “≈ 1”. For the same compound, the IC50 in series [4] and in [2] was 50 to 80 nM in each case. For the same compound, in [6] (10 µM), the “inhibition of tubulin polymerization at 10 µM” value is “Complete inhibition”. In addition, the “inhibition of tubulin polymerization at 20 µM” value in series [6] is given as “Complete inhibition”.

(Values after paper PMC3152597 (Bioorganic & medicinal chemistry, 2011).)
